Measured values taken from patent US20220233652A1, “Pharmaceutical Compositions Comprising Integration-Promoting Peptides” (priority 2018, published 2022).
Where two headings read alike, the source gives them in different places. No end group written: not given here.

How the values were obtained:
[1] = Preliminary solubility test of INS peptide salts in co-solvents and water; assay type: physicochemical; settings: for solubility: read-out: Approximate Solubility; for Solubility in PBS: physiological conditions
Protocol: Solubility of different INS peptide salts was measured in several co-solvents and in water.

[2] = Stability of formulations F4, F7 and F10 (HPLC); assay type: physicochemical; settings: F4, F7 and F10, ambient temperature and 4° C., 24 hours
Protocol: To investigate the stability of formulation F4, F7 and F10 they were stored at ambient temperature and at 4° C. Samples were taken out at time zero (initial) and after 24 hours and diluted 10 times with water prior to HPLC analysis. The results were compared to the standard peptide 0.5 mg/ml in water (STD).

[3] = Stability study of lyophilized formulation after reconstitution; assay type: physicochemical
Protocol: To obtain an isotonic solution having desired osmolality of about 300-330 mOsm/kg, the poloxamer percentage was reduced to 0.8% and the lactose percentage was reduced to 9.5%. The solution formulation F45 was prepared in a 40 ml clear glass vial according to Table 20. The pH was adjusted by NH4OH. […]
The physical and chemical stability of lyophilized powder obtained in Example 10 was investigated. The lyophilized powder was stored at −20° C. […] Formulations before filtration were used as a control (initial state) at each time point. […] At the time point: 0 h, 24 hours and 7 days appearance, pH and osmolarity were tested and the solutions were analyzed by HPLC for the presence of degradation. The recovery percent after filtration was also calculated. To investigate short-term in-use stability, additional 218 mg of lyophilized material was reconstituted, and the solution was stored at room temperature for 4 hours. […]

[4] = system: 1975 human lung cancer cells; experiment: Lung cancer tumor mice model; assay type: in vivo, athymic nude mice; settings: INS HCL and tumor-targeted lentiviral particles; lung cancer and pancreatic cancer models
Protocol: Two models of cancer were generated: lung cancer and pancreatic cancer. About 5×10^6 of 1975 human lung cancer cells per 0.1 ml PBS per mouse were injected to male 7 weeks old athymic nude mice (n=30). The cells were injected, subcutaneously at one site on the back of the mice. About 5×10^6 PANC-1 human pancreatic cancer cells per 0.1 ml PBS per mouse were injected to male 7 weeks old athymic nude mice (n=22). The cells were injected, subcutaneously at one site on the back of the mice. When tumors were palpable (˜0.3-0.5 cm^3), the mice were randomly divided into three groups (Table 27) and the viruses and/or peptides were injected, twice a week for two weeks.
The first day of the study was defined as ‘Day 1’. The animals were administrated IP with either Vehicle (PBS or Formulation), lentiviral particles and SC with test items according to Table 27 on days 1, 4, 8 and 11. Body weight and tumor volume were checked on days 3, 7, 11, 14 and 17 (the latter was measured with a caliper). At the end of the experiment, on day 17, the mice were anesthetized and then sacrificed, and the tumors were removed, as well as lung, spleen, kidney and liver.

[5] = Phase I/IIa clinical trial: safety and tolerability; assay type: in vivo, human; settings: HIV patients, SC twice weekly, 1% poloxamer 188 and 9% lactose formulation; preliminary results
Text: Patients are monitored for adverse events (AE) of the INS peptide such as rash, acute allergic reaction, bronchospasm, respiratory distress, and acute vascular leak syndrome. If a severe administration related reaction occurs, the drug administration is stopped. Blood chemistry, hematology, coagulation, and urinalysis are repeated on Days 1, 4, 8, 11, 15, 18, 22, 25 at the clinic visits.
The primary safety endpoint is the frequency, severity, and duration of side effects. Number of participants with treatment-related adverse events as assessed by CTCAE v4.03, are evaluated though study completion. Main adverse events evaluation is based on DADS Toxicity criteria (Division of AIDS DADS Table for Grading the Severity of Adult and Paediatric Adverse Events, Corrected Version 2.1): • Viral load • Lymphopenia/Neutropenia • Immuno-reaction over reaction/cytokine storm • Infection surrounding the administration site • Liver function (lab tests) • Kidney function (lab tests)
Incidence of withdrawal (drop-out rate) due to side effects is evaluated throughout the study.

With WTAVQMAVFIHNFKRK [INS HCl] the solubility ([1]; DMSO) was no more than 10000 µg/mL, the “Appearance in H2O” value ([1]; H2O) was “slightly opalescence” and the “pH in H2O” value ([1]; H2O, 10 mg/ml) was 2.60. The “Approximate Solubility” value ([1]; PBS) was “Not soluble”, the “Solubility in PBS” value ([1]; PBS) was “practically insoluble” and the “Solubility in PEG400” value ([1]; PEG400) was “poor solubility”. For the same sequence, the solubility ([1]; PEG400) was less than 5000 µg/mL, the “Appearance in propylene glycol” value ([1]; Propylene glycol (PG), 5mg/ml) was “clear solution” and the “Solubility in ethanol” value ([1]; ethanol) was “poor solubility”. For the same sequence, the solubility ([1]; ethanol) was less than 5000 µg/mL, the solubility ([1]; propylene glycol (PG)) was 5000 to 10000 µg/mL and the “Solubility in PG” value ([1]; propylene glycol, a clear solution was obtained) was “moderate solubility”. For the same sequence, the “Appearance of solution in water” value ([1]; water) was “solution with opalescence”, the “pH of solution in water” value ([1]; water) was 2.6 and the solubility ([1]; water, pH 2.6, H2O) was greater than 10000 µg/mL. For the same sequence, the “Stability in formulations” value [2] was “high stability in all formulations”, the “Peptide adsorbed to PES filters” value ([3]; PES filters) was “about 30%” and the “Time stable at room temperature after reconstitution” value ([3]; room temperature, no significant difference in comparison to control) was “at least 4 hours”. For the same sequence, the “Decrease in growth of tumors” value [4] was “up to 50%” and the “Safety and tolerability” value [5] was “safe and well tolerable”.

With WTAVQMAVFIHNFKRK [INS TFA] the “Concentration dissolved in DMSO” value ([1]; DMSO) was no more than 10000 µg/mL, the “Behaviour upon dilution in PBS” value ([1]; solution in water or DMSO diluted in PBS) was “precipitated” and the “Concentration dissolved in water” value ([1]; water) was no more than 10000 µg/mL.

For WTAVQMAVFIHNFKRK [INS acetate], the “Solubility in DMSO” value ([1]; DMSO) was “completely insoluble”, the “Solubility in PBS” value ([1]; PBS) was “completely insoluble” and the “pH above which the dissolved salt precipitated” value ([1]; dissolved in low pH, pH raised) was “above 4”. For the same sequence, the “Solubility in water” value ([1]; water) was “soluble”.
